# From US20090118286A1, “Heterobicyclic Acrylamides” (Bayer Cropscience AG, priority 2005, published 2009)
# Test: log P determination by HPLC (EEC Directive 79/831 Annex V.A8, gradient method)
# Format: physicochemical
row,SMILES,Physical data: logP
1,CC(C)(C)c1nn2c(/C=C/C(=O)NC3CCCC3)c(-c3ccccc3Cl)nc2s1 [Example 0809],4.12
2,CC(C)(C)c1nn2c(/C=C/C(=O)NC3CCCCC3)c(-c3ccccc3Cl)nc2s1 [Example 0810],3.79
3,CC(C)(C)c1nn2c(/C=C/C(=O)NCC(F)(F)C(F)(F)C(F)(F)F)c(-c3ccccc3Cl)nc2s1 [Example 0815],4.48
4,COCc1nn2c(/C=C/C(=O)NCC(C)(C)C)c(-c3ccccc3Cl)nc2s1 [Example 0819],3.05
5,COCc1nn2c(/C=C/C(=O)NCCC(C)C)c(-c3ccccc3Cl)nc2s1 [Example 0820],3.12
6,COCc1nn2c(/C=C/C(=O)NC3CCC(C(F)(F)F)CC3)c(-c3ccccc3Cl)nc2s1 (centres unmarked) [Example 0821],3.4
7,COCc1nn2c(/C=C/C(=O)NC(C)C)c(-c3ccccc3Cl)nc2s1 [Example 0824],2.4
8,CCC(C)NC(=O)/C=C/c1c(-c2ccccc2Cl)nc2sc(COC)nn12 (centres unmarked) [Example 0825],2.71
9,COCc1nn2c(/C=C/C(=O)NC3CC3)c(-c3ccccc3Cl)nc2s1 [Example 0829],2.2
10,COCc1nn2c(/C=C/C(=O)NC3CCC3)c(-c3ccccc3Cl)nc2s1 [Example 0830],2.59
11,COCc1nn2c(/C=C/C(=O)NC3CCCC3)c(-c3ccccc3Cl)nc2s1 [Example 0831],2.8
12,COCc1nn2c(/C=C/C(=O)NC3CCCCC3)c(-c3ccccc3Cl)nc2s1 [Example 0832],3.12
13,COCc1nn2c(/C=C/C(=O)NCC(F)(F)C(F)(F)F)c(-c3ccccc3Cl)nc2s1 [Example 0836],3.17
14,COCc1nn2c(/C=C/C(=O)NCC(F)(F)C(F)(F)C(F)(F)F)c(-c3ccccc3Cl)nc2s1 [Example 0837],3.59
15,Cc1cn2c(/C=C/C(=O)NC(C)C(F)(F)F)c(-c3ccccc3Cl)nc2s1 (centres unmarked) [Example 0861],2.85
16,Cc1cn2c(C=CC(=O)NC(C(C)C)C(F)(F)F)c(-c3ccccc3Cl)nc2s1 (centres unmarked) [Example 0862],3.45
17,Cc1cn2c(/C=C/C(=O)NCC(C)(C)C)c(-c3ccccc3Cl)nc2s1 [Example 0863],2.89
18,Cc1cn2c(/C=C/C(=O)NCCC(C)C)c(-c3ccccc3Cl)nc2s1 [Example 0864],3
19,Cc1cn2c(/C=C/C(=O)NCC(F)(F)F)c(-c3ccccc3Cl)nc2s1 [Example 0866],2.64
20,Cc1cn2c(/C=C/C(=O)NC(C)C)c(-c3ccccc3Cl)nc2s1 [Example 0868],2.35
21,CCC(C)NC(=O)/C=C/c1c(-c2ccccc2Cl)nc2sc(C)cn12 (centres unmarked) [Example 0869],2.54
22,Cc1cn2c(/C=C/C(=O)NC(C)C(C)(C)C)c(-c3ccccc3Cl)nc2s1 (centres unmarked) [Example 0870],3.17

row,SMILES,Physical data: logP
1,Cc1cn2c(/C=C/C(=O)NC3CC3)c(-c3ccccc3Cl)nc2s1 [Example 0873],2.02
2,Cc1cn2c(/C=C/C(=O)NC3CCC3)c(-c3ccccc3Cl)nc2s1 [Example 0874],2.48
3,Cc1cn2c(/C=C/C(=O)NC3CCCC3)c(-c3ccccc3Cl)nc2s1 [Example 0875],2.7
4,Cc1cn2c(/C=C/C(=O)NC3CCCCC3)c(-c3ccccc3Cl)nc2s1 [Example 0876],3.05
5,Cc1cn2c(/C=C/C(=O)Nc3ccc(Cl)cc3)c(-c3ccccc3Cl)nc2s1 [Example 0877],3.57
6,Cc1cn2c(/C=C/C(=O)Nc3ccc(OC(F)(F)F)cc3)c(-c3ccccc3Cl)nc2s1 [Example 0878],3.9
7,Cc1cn2c(/C=C/C(=O)NCC(F)(F)C(F)(F)F)c(-c3ccccc3Cl)nc2s1 [Example 0880],3.09
8,Cc1cn2c(/C=C/C(=O)NCC(F)(F)C(F)(F)C(F)(F)F)c(-c3ccccc3Cl)nc2s1 [Example 0881],3.51
9,Cc1csc2nc(-c3ccccc3Cl)c(/C=C/C(=O)NC(C)C(F)(F)F)n12 (centres unmarked) [Example 0883],2.59
10,Cc1csc2nc(-c3ccccc3Cl)c(/C=C/C(=O)NC(C(C)C)C(F)(F)F)n12 (centres unmarked) [Example 0884],3.11
11,Cc1csc2nc(-c3ccccc3Cl)c(/C=C/C(=O)NCC(C)(C)C)n12 [Example 0885],2.67
12,Cc1csc2nc(-c3ccccc3Cl)c(/C=C/C(=O)NCCC(C)C)n12 [Example 0886],2.75
13,Cc1csc2nc(-c3ccccc3Cl)c(/C=C/C(=O)NC3CCC(C(F)(F)F)CC3)n12 (centres unmarked) [Example 0887],3.04
14,Cc1csc2nc(-c3ccccc3Cl)c(/C=C/C(=O)NCC(F)(F)F)n12 [Example 0888],2.36
15,Cc1csc2nc(-c3ccccc3Cl)c(/C=C/C(=O)NC(C)C)n12 [Example 0890],2.09
16,CCC(C)NC(=O)/C=C/c1c(-c2ccccc2Cl)nc2scc(C)n12 (centres unmarked) [Example 0891],2.35
17,Cc1csc2nc(-c3ccccc3Cl)c(/C=C/C(=O)NC(C)C(C)(C)C)n12 (centres unmarked) [Example 0892],2.84
18,Cc1csc2nc(-c3ccccc3Cl)c(/C=C/C(=O)NC3CC3)n12 [Example 0895],1.94
19,Cc1csc2nc(-c3ccccc3Cl)c(/C=C/C(=O)NC3CCC3)n12 [Example 0896],2.26
20,Cc1csc2nc(-c3ccccc3Cl)c(/C=C/C(=O)NC3CCCC3)n12 [Example 0897],2.46
21,Cc1csc2nc(-c3ccccc3Cl)c(/C=C/C(=O)NC3CCCCC3)n12 [Example 0898],2.74

# Results, then the molecule that gave them:
row,Physical data: logP,SMILES
1,4.72,CC(C)(C)c1nn2c(/C=C/C(=O)Nc3ccc(Cl)cc3)c(-c3ccccc3Cl)nc2s1 [Example 0811]
2,5.13,CC(C)(C)c1nn2c(/C=C/C(=O)Nc3ccc(OC(F)(F)F)cc3)c(-c3ccccc3Cl)nc2s1 [Example 0812]
3,4.08,CC(C)(C)c1nn2c(/C=C/C(=O)NCC(F)(F)C(F)(F)F)c(-c3ccccc3Cl)nc2s1 [Example 0814]
4,2.71,COCc1nn2c(/C=C/C(=O)NCC(C)C)c(-c3ccccc3Cl)nc2s1 [Example 0816]
5,2.93,COCc1nn2c(/C=C/C(=O)NC(C)C(F)(F)F)c(-c3ccccc3Cl)nc2s1 (centres unmarked) [Example 0817]
6,3.54,COCc1nn2c(C=CC(=O)NC(C(C)C)C(F)(F)F)c(-c3ccccc3Cl)nc2s1 (centres unmarked) [Example 0818]
7,2.72,COCc1nn2c(/C=C/C(=O)NCC(F)(F)F)c(-c3ccccc3Cl)nc2s1 [Example 0822]
8,3.87,COCc1nn2c(/C=C/C(=O)Nc3ccc(Cl)cc3)c(-c3ccccc3Cl)nc2s1 [Example 0833]
9,4,COCc1nn2c(/C=C/C(=O)Nc3ccc(OC(F)(F)F)cc3)c(-c3ccccc3Cl)nc2s1 [Example 0834]
10,3.99,COCc1nn2c(/C=C/C(=O)Nc3ccc(C(F)(F)F)cc3)c(-c3ccccc3Cl)nc2s1 [Example 0835]
11,4.37,CC(C)CNC(=O)/C=C/c1c(-c2ccccc2Cl)nc2sc(-c3ccc(C(F)(F)F)cc3)nn12 [Example 0838]
12,4.37,CC(NC(=O)/C=C/c1c(-c2ccccc2Cl)nc2sc(-c3ccc(C(F)(F)F)cc3)nn12)C(F)(F)F (centres unmarked) [Example 0839]
13,4.68,CC(C)(C)CNC(=O)/C=C/c1c(-c2ccccc2Cl)nc2sc(-c3ccc(C(F)(F)F)cc3)nn12 [Example 0841]
14,4.72,CC(C)CCNC(=O)/C=C/c1c(-c2ccccc2Cl)nc2sc(-c3ccc(C(F)(F)F)cc3)nn12 [Example 0842]
15,4.86,O=C(/C=C/c1c(-c2ccccc2Cl)nc2sc(-c3ccc(C(F)(F)F)cc3)nn12)NC1CCC(C(F)(F)F)CC1 (centres unmarked) [Example 0843]
16,4.21,O=C(/C=C/c1c(-c2ccccc2Cl)nc2sc(-c3ccc(C(F)(F)F)cc3)nn12)NCC(F)(F)F [Example 0844]

row,Physical data: logP,SMILES
1,3.96,CC(C)NC(=O)/C=C/c1c(-c2ccccc2Cl)nc2sc(-c3ccc(C(F)(F)F)cc3)nn12 [Example 0846]
2,4.33,CCC(C)NC(=O)/C=C/c1c(-c2ccccc2Cl)nc2sc(-c3ccc(C(F)(F)F)cc3)nn12 (centres unmarked) [Example 0847]
3,4.83,CC(NC(=O)/C=C/c1c(-c2ccccc2Cl)nc2sc(-c3ccc(C(F)(F)F)cc3)nn12)C(C)(C)C (centres unmarked) [Example 0848]
4,3.75,O=C(/C=C/c1c(-c2ccccc2Cl)nc2sc(-c3ccc(C(F)(F)F)cc3)nn12)NC1CC1 [Example 0851]
5,4.21,O=C(/C=C/c1c(-c2ccccc2Cl)nc2sc(-c3ccc(C(F)(F)F)cc3)nn12)NC1CCC1 [Example 0852]
6,4.44,O=C(/C=C/c1c(-c2ccccc2Cl)nc2sc(-c3ccc(C(F)(F)F)cc3)nn12)NC1CCCC1 [Example 0853]
7,4.76,O=C(/C=C/c1c(-c2ccccc2Cl)nc2sc(-c3ccc(C(F)(F)F)cc3)nn12)NC1CCCCC1 [Example 0854]
8,5.27,O=C(/C=C/c1c(-c2ccccc2Cl)nc2sc(-c3ccc(C(F)(F)F)cc3)nn12)NC1CCC(Cl)CC1 (centres unmarked) [Example 0855]
9,5.47,O=C(/C=C/c1c(-c2ccccc2Cl)nc2sc(-c3ccc(C(F)(F)F)cc3)nn12)Nc1ccc(OC(F)(F)F)cc1 [Example 0856]
10,5.61,O=C(/C=C/c1c(-c2ccccc2Cl)nc2sc(-c3ccc(C(F)(F)F)cc3)nn12)Nc1ccc(C(F)(F)F)cc1 [Example 0857]
11,4.62,O=C(/C=C/c1c(-c2ccccc2Cl)nc2sc(-c3ccc(C(F)(F)F)cc3)nn12)NCC(F)(F)C(F)(F)F [Example 0858]
12,5,O=C(/C=C/c1c(-c2ccccc2Cl)nc2sc(-c3ccc(C(F)(F)F)cc3)nn12)NCC(F)(F)C(F)(F)C(F)(F)F [Example 0859]
13,2.64,Cc1cn2c(/C=C/C(=O)NCC(C)C)c(-c3ccccc3Cl)nc2s1 [Example 0860]
14,3.88,Cc1cn2c(/C=C/C(=O)Nc3ccc(C(F)(F)F)cc3)c(-c3ccccc3Cl)nc2s1 [Example 0879]
15,2.4,Cc1csc2nc(-c3ccccc3Cl)c(/C=C/C(=O)NCC(C)C)n12 [Example 0882]
